# Data taken from patent US10030016B2 (Sunesis Pharmaceuticals, Inc., priority 2009, dated 2018).
# pEC50, pIC50: −log10 of the molar value.
# Columns and labels:
# [1] = tested on: phospho-akt (Thr308) in PC-3 cells; test: Inhibition of phospho-akt (Thr308) in PC-3 cells, MSD phospho-akt 308 ELISA kit; assay type: cell-based; conditions: Homo sapiens; inhibition of P308 Akt in PC-3 cells using MSD, 2 hours, no serum; read-out: EC50
# Procedure, shortened: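 Serum-free 2 h compound exposure of overnight-seeded PC-3 cells, threefold dilution series; lysates analysed on blocked MSD plates (3% BSA) for Thr308-phosphorylated Akt, normalised between DMSO and 5 μM wortmannin wells.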
# PDK1 = PDK1 (Homo sapiens (Human), UniProt O15530); test: PDK1 kinase assay (coupled PDK1/AKT/FAM-crosstide assay, IMAP fluorescence polarization); assay type: biochemical; conditions: inhibition of PDK1 in vitro
# PDK1, sequence (O15530 51-359): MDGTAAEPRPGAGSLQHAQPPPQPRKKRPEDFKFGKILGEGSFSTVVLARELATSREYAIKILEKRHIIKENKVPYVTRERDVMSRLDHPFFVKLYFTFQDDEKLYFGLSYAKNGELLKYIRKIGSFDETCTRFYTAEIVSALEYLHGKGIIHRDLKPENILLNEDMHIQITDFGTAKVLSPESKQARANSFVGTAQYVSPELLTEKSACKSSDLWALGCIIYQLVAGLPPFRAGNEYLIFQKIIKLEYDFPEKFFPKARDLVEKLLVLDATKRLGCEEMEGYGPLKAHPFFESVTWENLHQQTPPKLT
# Procedure, shortened: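 Inhibition is derived by 4-parameter fitting of ΔmP from an IMAP fluorescence polarization read of FAM-crosstide (100 nM) phosphorylation. The cascade ran 30 min at 25 °C with 40 μM ATP, using insect-cell GST-PDK1 51-359 (0.75 nM) driving 10 nM unphosphorylated AKT2 140-467-PIFtide fusion.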
SMILES,pEC50 [1],pIC50 (PDK1)
"N#Cc1cnc(NCc2ccc(-c3cnc4[nH]c(=O)[nH]c4c3)cc2)c(C(=O)NCc2ccc(F)c(F)c2)n1 [Example 364, 6-cyano-N-(3,4-difluorobenzyl)-3-(4-(2-oxo-2,3-dihydro-1H-imidazo[4,5-b]pyridin-6-yl)benzylamino)pyrazine-2-carboxamide]",> 6.00,> 7.00
"C[C@H](NC(=O)c1cccnc1NCc1ccc(-c2cnc3[nH]c(=O)[nH]c3c2)cc1)c1ccc(F)c(F)c1 [Example 366, (S)-N-(1-(3,4-difluorophenyl)ethyl)-2-(4-(2-oxo-2,3-dihydro-1H-imidazo[4,5-b]pyridin-6-yl)benzylamino) nicotinamide]",> 6.00,> 7.00
"C[C@H](NC(=O)c1cc(C#N)cnc1NCc1ccc(-c2ccc(N)nc2)cc1)c1ccc(F)c(F)c1 [Example 367, (S)-2-(4-(6-aminopyridin-3-yl)benzylamino)-5-cyano-N-(1-(3,4-difluorophenyl)ethyl) nicotinamide]",> 6.00,> 7.00
"N#Cc1cnc(NCc2ccc(-c3ccc(N)nc3)cc2)c(C(=O)NCc2ccc(F)c(F)c2)c1 [Example 368, 2-(4-(6-aminopyridin-3-yl)benzylamino)-5-cyano-N-(3,4-difluorobenzyl) nicotinamide]",> 6.00,> 7.00
"Nc1ccc(-c2ccc(CNc3ncc(C(F)(F)F)cc3C(=O)NCc3ccc(F)c(F)c3)cc2)cn1 [Example 370, 2-(4-(6-aminopyridin-3-yl)benzylamino)-N-(3,4-difluorobenzyl)-5-(trifluoro-methyl)nicotinamide]",5.00 to 6.00,> 7.00
"C[C@H](NC(=O)c1nccnc1NCc1ccc(-c2ccc(N)nc2)cc1)c1ccc(F)cc1 [Example 371, (S)-3-(4-(6-aminopyridin-3-yl)benzylamino)-N-(1-(4-fluorophenyl)ethyl)pyrazine-2-carboxamide]",< 5.00,> 7.00
"N#Cc1cnc(NCc2ccc(-c3ccc(N)nc3)cc2)c(C(=O)NCc2ccc(F)c(F)c2)n1 [Example 372, 3-(4-(6-aminopyridin-3-yl)benzylamino)-6-cyano-N-(3,4-difluorobenzyl)pyrazine-2-carboxamide]",5.00 to 6.00,> 7.00
"C[C@H](NC(=O)c1nc(C#N)cnc1NCc1ccc(-c2cnc(N)cn2)cc1)c1ccc(F)c(F)c1 [Example 376, (S)-3-(4-(5-aminopyrazin-2-yl)benzylamino)-6-cyano-N-(1-(3,4-difluorophenyl)ethyl)pyrazine-2-carboxamide]",> 6.00,> 7.00
"N#Cc1cnc(NCc2ccc(-c3cnc(N)cn3)cc2)c(C(=O)NCc2ccc(F)cc2)c1 [Example 378, 2-(4-(5-aminopyrazin-2-yl)benzylamino)-5-cyano-N-(4-fluorobenzyl) nicotinamide]",5.00 to 6.00,> 7.00
"C[C@H](NC(=O)c1cc(C(F)(F)F)cnc1NCc1ccc(-c2cnc(N)cn2)cc1)c1ccc(F)cc1 [Example 379, (S)-2-(4-(5-aminopyrazin-2-yl)benzylamino)-N-(1-(4-fluorophenyl)ethyl)-5-(trifluoromethyl)nicotinamide]",> 6.00,> 7.00
"C[C@H](NC(=O)c1cccnc1NCc1ccc(-c2cnc(N)cn2)cc1)c1ccc(F)c(F)c1 [Example 380, (S)-2-(4-(5-aminopyrazin-2-yl)benzylamino)-N-(1-(3,4-difluorophenyl)ethyl) nicotinamide]",5.00 to 6.00,6.00 to 7.00
"Nc1cnc(-c2ccc(CNc3nccc4ncn(Cc5ccc(F)c(F)c5)c(=O)c34)cc2)cn1 [Example 381, 5-(4-(5-aminopyrazin-2-yl)benzylamino)-3-(3,4-difluorobenzyl)pyrido[4,3-d] pyrimidin-4(3H)-one]",5.00 to 6.00,> 7.00
"C[C@H](NC(=O)c1cc(C(F)(F)F)cnc1NCc1ccc(-c2cnc(N)cn2)cc1)c1ccc(F)c(F)c1 [Example 382, (S)-2-(4-(5-aminopyrazin-2-yl)benzylamino)-N-(1-(3,4-difluorophenyl)ethyl)-5-(trifluoromethyl)nicotinamide]",> 6.00,> 7.00
"Nc1cnc(-c2ccc(CNc3ncc(C(F)(F)F)cc3C(=O)NCc3ccc(F)cc3)cc2)cn1 [Example 383, 2-(4-(5-aminopyrazin-2-yl)benzylamino)-N-(4-fluorobenzyl)-5-(trifluoromethyl)nicotinamide]",> 6.00,> 7.00

# Now from value to molecule:
pEC50 [1],pIC50 (PDK1),SMILES
> 6.00,> 7.00,"C[C@H](NC(=O)c1cc(C(F)(F)F)cnc1NCc1ccc(-c2cnc3[nH]c(=O)[nH]c3c2)cc1)c1ccc(F)c(F)c1 [Example 362, (S)-N-(1-(3,4-difluorophenyl)ethyl)-2-(4-(2-oxo-2,3-dihydro-1H-imidazo[4,5-b]pyridin-6-yl)benzylamino)-5-(trifluoromethyl)nicotinamide]"
> 6.00,> 7.00,"C[C@H](NC(=O)c1nc(C#N)cnc1NCc1ccc(-c2cnc3[nH]c(=O)[nH]c3c2)cc1)c1ccc(F)c(F)c1 [Example 363, (S)-6-cyano-N-(1-(3,4-difluorophenyl)ethyl)-3-(4-(2-oxo-2,3-dihydro-1H-imidazo[4,5-b]pyridin-6-yl)benzylamino)-pyrazine-2-carboxamide]"
> 6.00,> 7.00,"N#Cc1cnc(NCc2ccc(-c3cnc4[nH]c(=O)[nH]c4c3)cc2)c(C(=O)NCc2ccc(F)cc2)n1 [Example 365, 6-cyano-N-(4-fluorobenzyl)-3-(4-(2-oxo-2,3-dihydro-1H-imidazo[4,5-b]pyridin-6-yl)benzylamino)pyrazine-2-carboxamide]"
5.00 to 6.00,> 7.00,"C[C@H](NC(=O)c1cccnc1NCc1ccc(-c2ccc(N)nc2)cc1)c1ccc(F)c(F)c1 [Example 369, (S)-2-(4-(6-aminopyridin-3-yl)benzylamino)-N-(1-(3,4-difluorophenyl)ethyl) nicotinamide]"
5.00 to 6.00,5.30 to 6.00,"Nc1ccc(-c2ccc(CNc3ncccc3C(=O)NCc3cncc(F)c3)cc2)cn1 [Example 373, 2-(4-(6-aminopyridin-3-yl)benzylamino)-N-((5-fluoropyridin-3-yl)methyl)nicotinamide]"
5.00 to 6.00,> 7.00,"Nc1ccc(-c2ccc(CNc3nccc4ncn(Cc5ccc(F)c(F)c5)c(=O)c34)cc2)cn1 [Example 374, 5-(4-(6-aminopyridin-3-yl)benzylamino)-3-(3,4-difluorobenzyl)pyrido[4,3-d] pyrimidin-4(3H)-one]"
5.00 to 6.00,5.30 to 6.00,"Nc1ccc(-c2ccc(CNc3ncccc3C(=O)Nc3ccc(F)cc3)cc2)cn1 [Example 375, 2-(4-(6-aminopyridin-3-yl)benzylamino)-N-(4-fluorophenyl)nicotinamide]"
5.00 to 6.00,> 7.00,"N#Cc1cnc(NCc2ccc(-c3cnc(N)cn3)cc2)c(C(=O)NCc2ccc(F)c(F)c2)c1 [Example 377, 2-(4-(5-aminopyrazin-2-yl)benzylamino)-5-cyano-N-(3,4-difluorobenzyl) nicotinamide]"
> 6.00,> 7.00,"Cn1cnc2cnc3ccc(-c4cnc(CNc5ncccc5C(=O)NCc5ccc(F)c(F)c5)s4)cc3c21 [Example 384, N-(3,4-Difluoro-benzyl)-2-{[5-(1-methyl-1H-imidazo [4,5-c]quinolin-8-yl)-thiazol-2-ylmethyl]-amino}-nicotinamide]"
